The values that follow come from patent US8012414B2, “Sterilization of drugs using supercritical carbon dioxide sterilant” (Novasterilis, priority 2007, dated 2011).

The nature of this data set: State of micro-crystalline/powder drug after supercritical CO2 sterilization with peracetic acid additive. The data set is classed as physicochemical. The conditions noted are these: 1500 psi, 35° C., 180 minutes, Peracetic Acid 16 mL. Here is the method: For these products, the input or flow of CO2 through valve 24 into the reactor pressure vessel 22 is regulated to 0.01 to 5 psi/second. Regulating the rate of pressurization is also intended to control mass flow (1000 mg/second) of CO2 into the reactor pressure vessel 22. In the initial fill, the valve 24 is opened and allowed to flow at the regulated rate using the ambient pressure of the CO2 supply from the gas cylinder 12. The CO2 supply pressure can range from 75 psi to approximately 900 psi or greater. Once the pressure in reactor pressure vessel 22 reaches equilibrium with the CO2 supply source pressure, the pumping of the CO2 using the carbon dioxide booster 16 begins. […] Once the reactor pressure vessel 22 reaches its operating pressure of 1500 psi, the process is allowed to continue through its normal path. Upon completion of the desired time period at the operating temperature and pressure, depressurization of the reactor pressure vessel 22 then occurs. […] Regulating the rate of depressurization is also intended to control of mass flow of CO2 out of the reactor pressure vessel 22. The rate of depressurization is controlled at this rate until the ambient pressure in the reactor pressure vessel 22 is zero or at equilibrium with the atmospheric pressure. Ambient conditions are generally zero psi and 25 degrees C. […]

For the substance Methyl-Prednisone, the “State of the Corticosteroid drug after sterilization (look and feel of powder)” value is, setting by setting: (CO2 pressurization 5 psi/second, depressurization 50 psi/second) “unchanged”; (CO2 pressurization 75 psi/second (unrestricted), depressurization 100 psi/second) “changed”.
